According to patent publication US4169141A, “1-Peptidyl derivatives of di-O-aminoglycosyl-1,3-diaminocyclitol antibacterial agents” (priority 1978, dated 1979):

Tested on: Pseudomonas infections caused by known producers of GAT I
Assay: Mouse protection test, Pseudomonas infection
Type: in vivo, CF1 (Carworth Farms) mice
Conditions: CF1 mice 18 to 20 g
Description: B. Mouse protection tests were performed in the usual manner using CF1 (Carworth Farms) mice weighing 18 to 20 g. each. […] Thus, the compounds of this invention may be used to control or eradicate susceptible bacterial strains in warm blooded animals, particularly in laboratory animals.

With CN[C@@H]1[C@@H](O)[C@@H](O[C@@H]2[C@@H](O)[C@H](O[C@H]3OC(CN)=CC[C@H]3N)[C@@H](N)C[C@H]2N)OC[C@]1(C)O [sisomicin] the “protection (mouse protection test, PD50)” value was “slight protection”.
